Test results reported in paper PMC6271771, “4-Amino-substituted Benzenesulfonamides as Inhibitors of Human Carbonic Anhydrases” (Molecules, 2014).
Several values for one entry are separate records, joined by “and”; a condition that tells them apart may be missing. Identical values can stand only once. Like-named read-outs stand apart in the source and are kept apart here.

Columns and labels:
CA VI [1] = biological target: T1, CA VI (Homo sapiens, UniProt P23280); parameters: method as in PMID 24300919, PMID 17228881; details: read-out: inhibition constant Ki for CA VI; previously reported; cited from earlier work
T1 construct: made in house

CA XIII [2] = biological target: T2, CA XIII (Homo sapiens, UniProt Q8N1Q1); assay: Fluorescent thermal shift assay (FTSA), CA XIII; type: binding
T2 construct: made in house

CA VI [3] = biological target: T1, CA VI; assay: Fluorescent thermal shift assay (FTSA), CA VI; type: binding
CA VII [4] = biological target: T3, CA VII (Homo sapiens, UniProt P43166); assay: Fluorescent thermal shift assay (FTSA), CA VII; type: binding
T3 construct: made in house

CA I [5] = biological target: T4, CA I (Homo sapiens, UniProt P00915); assay: Fluorescent thermal shift assay (FTSA), CA I; type: binding
T4 construct: made in house

CA VI [6] = biological target: T1, CA VI; parameters: method as in Murakami and Sly 35; details: read-out: Ki for CA VI; ref Murakami and Sly 35; cited from earlier work
CA VII [7] = biological target: T3, CA VII; assay: Isothermal titration calorimetry (ITC), CA VII; type: binding
Experimental: (§1) The synthesized compounds could be arranged into two groups. The first group of compounds is the N-aryl-β-alanine derivatives containing the primary sulfonamide group 3–25 (except in the compound 4 which is a tertiary sulfonamide) and the second group of compounds—diazobenzenesulfonamides 26–33. Compounds such as benzenesulfonamide (BSA) and acetazolamide (AZM) were used as controls. The binding affinity of these compounds to six CA isoforms I, II, VI, VII, XII, and XIII was determined by the fluorescent thermal shift assay (FTSA) and confirmed for two key compounds 18 and 31 by the isothermal titration calorimetry (ITC).
(§2) Isothermal titration calorimetry (ITC) experiments were performed using VP-ITC instrument (Microcal, Inc., Northampton, MA, USA) with 5–10 µM protein solution in the cell and 50–100 µM of the ligand solution in the syringe. A typical experiment consisted of 25 injections (10 µL each) within 3 min intervals. Experiments were performed at 37 °C in a 50 mM sodium phosphate buffer containing 100 mM NaCl at pH 7.0, with a final DMSO concentration of 2%, equal in the syringe and the cell.

CA II [8] = biological target: T5, CA II (Homo sapiens, UniProt P00918); assay: Isothermal titration calorimetry (ITC), CA II; type: binding; details: for K (ITC titration of CA II) / ΔH (ITC titration of CA II): 37 °C, 50 mM phosphate buffer (pH 7.0), 100 mM NaCl, 2% DMSO, Figure 2
T5 construct: made in house
Experimental: as §1, §2

CA XIII [9] = biological target: T2, CA XIII; assay: Isothermal titration calorimetry (ITC), CA XIII; type: binding
Experimental: as §1, §2

CA II [10] = biological target: T5, CA II; assay: Fluorescent thermal shift assay (FTSA), CA II; type: binding; details: pH 7.0, 37 °C
CA I [11] = biological target: T4, CA I; assay: Isothermal titration calorimetry (ITC), CA I; type: binding
Experimental: as §1, §2

CA XII [12] = biological target: T6, CA XII (Homo sapiens, UniProt O43570); assay: Isothermal titration calorimetry (ITC), CA XII; type: binding; details: pH 7.0, 37 °C, read-out: Kd for CA XII by isothermal titration calorimetry (values in the brackets)
T6 construct: made in house
Experimental: as §1, §2

CA XII [13] = biological target: T6, CA XII; assay: Fluorescent thermal shift assay (FTSA), CA XII; type: binding
[14] = FTSA, pH 7.0, 37 °C, read-out: Compound Dissociation Constants Kd for CA XIII

T4 sequence (P00915 whole entry): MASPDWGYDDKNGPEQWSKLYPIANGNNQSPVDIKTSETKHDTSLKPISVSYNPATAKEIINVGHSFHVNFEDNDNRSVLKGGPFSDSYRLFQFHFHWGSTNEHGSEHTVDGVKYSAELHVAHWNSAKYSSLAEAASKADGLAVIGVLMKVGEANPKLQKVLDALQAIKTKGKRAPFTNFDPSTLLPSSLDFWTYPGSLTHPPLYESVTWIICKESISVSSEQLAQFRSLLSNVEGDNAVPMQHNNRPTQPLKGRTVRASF
T2 sequence (Q8N1Q1 whole entry): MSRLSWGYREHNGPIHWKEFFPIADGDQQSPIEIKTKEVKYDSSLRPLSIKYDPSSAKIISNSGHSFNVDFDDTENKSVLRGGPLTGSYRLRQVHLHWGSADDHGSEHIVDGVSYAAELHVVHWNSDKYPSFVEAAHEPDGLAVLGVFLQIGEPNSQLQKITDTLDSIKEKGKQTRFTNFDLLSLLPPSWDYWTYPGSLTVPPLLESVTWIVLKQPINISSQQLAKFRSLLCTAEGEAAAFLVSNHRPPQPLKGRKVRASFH
T3 sequence (P43166 whole entry): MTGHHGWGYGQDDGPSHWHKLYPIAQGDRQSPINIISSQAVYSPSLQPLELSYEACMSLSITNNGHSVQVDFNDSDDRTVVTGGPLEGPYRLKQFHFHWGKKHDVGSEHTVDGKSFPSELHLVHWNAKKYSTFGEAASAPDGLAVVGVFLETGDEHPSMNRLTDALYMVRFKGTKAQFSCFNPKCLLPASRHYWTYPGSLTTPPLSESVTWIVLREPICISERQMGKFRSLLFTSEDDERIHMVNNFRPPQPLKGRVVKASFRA
T6 sequence (O43570 30-289 limits assumed): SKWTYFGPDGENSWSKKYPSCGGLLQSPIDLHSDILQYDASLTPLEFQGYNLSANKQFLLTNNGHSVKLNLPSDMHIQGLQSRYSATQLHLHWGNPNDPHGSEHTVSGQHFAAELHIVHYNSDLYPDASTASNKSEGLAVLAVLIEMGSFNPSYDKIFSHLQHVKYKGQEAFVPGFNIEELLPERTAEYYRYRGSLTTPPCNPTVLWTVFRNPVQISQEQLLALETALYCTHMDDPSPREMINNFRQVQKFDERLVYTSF
T1 sequence (P23280 18-308): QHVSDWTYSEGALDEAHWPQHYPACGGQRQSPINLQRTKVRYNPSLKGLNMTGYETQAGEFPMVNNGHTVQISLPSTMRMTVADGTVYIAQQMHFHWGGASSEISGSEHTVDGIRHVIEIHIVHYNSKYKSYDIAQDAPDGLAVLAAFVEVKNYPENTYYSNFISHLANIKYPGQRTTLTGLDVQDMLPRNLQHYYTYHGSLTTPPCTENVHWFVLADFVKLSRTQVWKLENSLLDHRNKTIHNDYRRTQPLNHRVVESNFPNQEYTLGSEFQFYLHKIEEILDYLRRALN

## Nc1ccc(S(N)(=O)=O)cc1 [Compound 1, 4-Aminobenzene-1-sulfonamide, reference compound]
CA VI [1]
  Ki: 900 nM
CA XIII [2]; [14]
  Kd: 100000 nM
CA VI [3]
  Kd: 56000 nM
CA VII [4]
  Kd: 50000 nM
CA I [5]; Kd (FTSA) versus Ki of ref 35
  difference between own Kd and Ki of Murakami and Sly, CA I: 2 times
CA VI [6]
  Ki: 9900 nM

## NS(=O)(=O)c1ccc(/N=N/N2CCCCCC2)cc1 [Compound 31]
CA XIII [2]
  Kd: 22.2 nM
CA VII [7]
  Kd: 192 nM
CA VI [3]
  Kd: 14300 nM
CA II [8]
  Kd: 40 nM
  K (ITC titration of CA II): 2.5E7
  ΔH (ITC titration of CA II): -9640
CA XIII [9]
  Kd: 78 nM
CA II [10]; Compound Dissociation Constants Kd for CA II
  Kd: 43.5 nM
CA VII [4]
  Kd: 125 nM
CA I [11]
  Kd: 22 nM
CA XII [12]
  Kd: 220 nM
CA I [5]
  Kd: 6 nM
CA XII [13]
  Kd: 670 nM

## Cc1cc(C)n(C(=O)CCNc2ccc(S(N)(=O)=O)cc2)n1 [Compound 18, 4-{[3-(3,5-Dimethyl-1H-pyrazol-1-yl)-3-oxopropyl]amino}benzene-1-sulfonamide]
CA XIII [2]; [14]
  Kd: 4000 nM
CA VII [7]; ITC, pH 7.0, 37 °C, read-out: Kd for CA VII by isothermal titration calorimetry (values in the brackets)
  Kd: 900 nM
CA VI [3]; FTSA, pH 7.0, 37 °C, read-out: Compound Dissociation Constants Kd for CA VI
  Kd: 27000 nM
CA II [8]
  K (ITC titration of CA II): 2.2E6
  ΔH (ITC titration of CA II): -9320
CA II [8]; ITC, pH 7.0, 37 °C, read-out: Kd for CA II by isothermal titration calorimetry (values in the brackets)
  Kd: 454 nM
CA XIII [9]; ITC, pH 7.0, 37 °C, read-out: Kd for CA XIII by isothermal titration calorimetry (values in the brackets)
  Kd: 1000 nM
CA II [10]; read-out: Compound Dissociation Constants Kd for CA II
  Kd: 670 nM and 667 nM
CA VII [4]; FTSA, pH 7.0, 37 °C, read-out: Compound Dissociation Constants Kd for CA VII
  Kd: 3330 nM
CA I [11]; ITC, pH 7.0, 37 °C, read-out: Kd for CA I by isothermal titration calorimetry (values in the brackets)
  Kd: 750 nM
CA I [5]; FTSA, pH 7.0, 37 °C, read-out: Compound Dissociation Constants Kd for CA I
  Kd: 1670 nM
CA XII [13]; FTSA, pH 7.0, 37 °C, read-out: Compound Dissociation Constants Kd for CA XII
  Kd: 14300 nM
